Source: patent publication US11091511B2, “Panaxdiol-type ginsenoside derivative, preparation method therefor and use thereof” (ARMY MEDICAL UNIVERSITY, priority 2016, dated 2021)
Marks after values point to notes of the source that are not given here.

Experiments:
RAW264.7 cells = test: RAW264.7 cell survival rate by CCK8 method; assay type: cell-based, mouse; settings: compound 10 prnol/L, 0.1% DMSO, CCK8, x ± s, n = 3, normal saline control = 1
Description: In order to further verify the toxicities of the compounds prepared in Examples 1-30 of the present invention, the mouse macrophage cell line RAW264.7 was cultured, and the compounds prepared in Examples 1-30 of the invention were prepared to a concentration of […] using culture medium, wherein the solvent was normal saline, the co-solvent was dimethyl sulfoxide (DMSO, the final concentratoin was 0.1%), and a 0.1% DMSO saline control group was provided. The cell survival rate was determined by CCK8 method. The data were expressed as x±s. SPSS 10.0 line single-factor analysis of variance was performed among groups. The difference was significant when p<0.05.

apoE−/− mice [1] = test: Atherosclerotic plaque area to total aortic area in apoE-/- mice on high-fat diet (Sudan IV staining); assay type: in vivo, mouse; settings: intragastric 15 weeks, compounds 30 mg/(kg·d), simvastatin 10 mg/(kg·d), x ± s, n = 5, saline control 14.67 ± 3.58
Text: The effects of the compounds prepared in Examples 1-30 of the present invention on the percentages of areas of atherosclerotic plaque formation to the area of the entire artery in apoE−/− mice with a high-fat diet and the levels of low-density lipoprotein cholesterol and the levels of high-density lipoprotein, the specific steps are as follows: 1. animals: 160 ten-week-old, healthy and clean-grade apoE−/− mice (purchased from Peking University Experimental Animal Center), males, weight: 22-25 g, were housed in separate cages in a sterile laminar feeding room and fed freely. The mice were fed by a high-fat diet (conventional feed+0.15% cholesterol+21% lard) for 25 weeks, the room temperature was kept at 24° C., relative humidity: 50%, illumination time 7:30-19:30. 2. Grouping, administration method: after 10 weeks of feeding, the animals were divided into the following 32 groups (n=5) by weight in a balanced and random manner, and killed 15 weeks after administration. Normal saline control group: normal saline, intragastric administration. Positive control group: simvastatin 10 mg/(kg·d), intragastric administration. The compound groups prepared in Examples 1-30 of the present invention (30 groups in total): each was intragastric administered 30 mg/(kg·d). (1) Analysis of the area of atherosclerotic plaque and its percentage to total area: after the animals were killed, the aortas were separated, from the roots of the aortas to the terminal bifurcations of the abdominal aortas. After formalin fixation, the aortas were stained with Sudan IV, the red stained parts were the areas of atherosclerotic lesions. The percentage of the area of the lesion area to total area was calculated using Image Pro Plus 5.0 software. Data were expressed as x±s, and SPSS 10.0 line single-factor analysis of variance was performed among groups, a significant difference was indicated when p<0.05.

apoE−/− mice [2] = test: Blood lipids (LDL-C, HDL-C) in apoE-/- mice on high-fat diet; assay type: in vivo, mouse; settings: apoE-/- mice serum, intragastric 15 weeks, compounds 30 mg/(kg·d), simvastatin 10 mg/(kg·d), x ± s; for HDL-C: n = 5, saline control 3.74 ± 0.62; for LDL-C: n = 5, saline control 7.33 ± 1.03
Text: The effects of the compounds prepared in Examples 1-30 of the present invention on the percentages of areas of atherosclerotic plaque formation to the area of the entire artery in apoE−/− mice with a high-fat diet and the levels of low-density lipoprotein cholesterol and the levels of high-density lipoprotein, the specific steps are as follows:
1. animals: 160 ten-week-old, healthy and clean-grade apoE−/− mice (purchased from Peking University Experimental Animal Center), males, weight: 22-25 g, were housed in separate cages in a sterile laminar feeding room and fed freely. The mice were fed by a high-fat diet (conventional feed+0.15% cholesterol+21% lard) for 25 weeks, the room temperature was kept at 24° C., relative humidity: 50%, illumination time 7:30-19:30.
2. Grouping, administration method:
after 10 weeks of feeding, the animals were divided into the following 32 groups (n=5) by weight in a balanced and random manner, and killed 15 weeks after administration.
Normal saline control group: normal saline, intragastric administration.
Positive control group: simvastatin 10 mg/(kg·d), intragastric administration.
The compound groups prepared in Examples 1-30 of the present invention (30 groups in total): each was intragastric administered 30 mg/(kg·d).
(2) Determination of the levels of total cholesterol (TC), low-density cholesterol lipoprotein (LDL-C) and high-density lipoprotein cholesterol (HDL-C): using ROCHE 7060 automatic biochemical analyzer for the determination.
Data were expressed as x±s, and SPSS 10.0 line single-factor analysis of variance was performed among groups, a significant difference was indicated when p<0.05.

TNF-α = test: Local TNF-α level in the arteries of apoE-/- mice (Millipore liquid phase chip); assay type: in vivo, mouse; settings: high-fat diet, intragastric 15 weeks, compounds 30 mg/(kg·d), simvastatin 10 mg/(kg·d), x ± s, n = 5, saline control 25.58 ± 6.44
Text: The effects of the compounds prepared in Examples 1-30 of the present invention on the percentages of areas of atherosclerotic plaque formation to the area of the entire artery in apoE−/− mice with a high-fat diet and the levels of low-density lipoprotein cholesterol and the levels of high-density lipoprotein, the specific steps are as follows: 1. animals: 160 ten-week-old, healthy and clean-grade apoE−/− mice (purchased from Peking University Experimental Animal Center), males, weight: 22-25 g, were housed in separate cages in a sterile laminar feeding room and fed freely. The mice were fed by a high-fat diet (conventional feed+0.15% cholesterol+21% lard) for 25 weeks, the room temperature was kept at 24° C., relative humidity: 50%, illumination time 7:30-19:30. 2. Grouping, administration method: after 10 weeks of feeding, the animals were divided into the following 32 groups (n=5) by weight in a balanced and random manner, and killed 15 weeks after administration. Normal saline control group: normal saline, intragastric administration. Positive control group: simvastatin 10 mg/(kg·d), intragastric administration. The compound groups prepared in Examples 1-30 of the present invention (30 groups in total): each was intragastric administered 30 mg/(kg·d). (3) Determination of TNF-α level: Millipore liquid phase chip method was used for the determination (Mcytomag-70K-3, Mouse Cytokine/Chemokine Magnetic Bead Panel). Data were expressed as x±s, and SPSS 10.0 line single-factor analysis of variance was performed among groups, a significant difference was indicated when p<0.05.

[3] = test system: RAW264.7 cell-derived foam cells; test: Formation of RAW264.7 cell-derived foam cells (ox-LDL, oil red O, absorbance 490 nm); assay type: cell-based, mouse; settings: 48 hours, model group = 100%, x ± s, n = 3
Description: The effects of the compounds prepared in Examples 1-30 of the present invention on the formation of RAW264.7 cell-derived foam cells, the specific steps are as follows:
1. Cell culture and foam cell model establishment:
RAW264.7 cells were cultured in DMEM culture medium with high glucose level (GIBCO) to a cell concentration of 1×10^6, planted in a 6-well plate, and 60 mg/L of ox-LDL (oxidized modified low-density lipoprotein, Peking Union Medical College) was added, foam cells were obtained after 48 hours of incubation.
2. Grouping and index detection:
The obtained foam cells were divided into 61 groups, 3 well plates were included in one group. After the treatment by adding the drugs (100 μL/well) for 48 hours, the medium was discarded, and after oil red 0 staining, the excess amount of oil red 0 was washed away. The cells were dissolved in isopropanol and the absorbance values were measured at 490 nm. The OD value of the model group was 100%, and the OD value of each group corrected by the number of cells was compared with the model group to obtain the ratio of intracellular lipid content. The larger the value, the more intracellular lipids, the higher the degree of formation of foam cells.
Normal saline control group: normal saline
Low dose groups of the compounds prepared in Examples 1-30 of the present invention:
10 μmol/L (solvents were normal saline).
High dose groups of compounds prepared in Examples 1-30 of the present invention: 30 μmol/L (solvents were normal saline).
Data were expressed as x±s, and SPSS 10.0 line single-factor analysis of variance was performed amoung groups, a significant difference was indicated when p<0.05.

Row | Compound | Cell Survival Rate (RAW264.7 cells) | Plaque area/total aorta area (%) (apoE−/− mice [1]) | HDL-C (apoE−/− mice [2]) | LDL-C (apoE−/− mice [2]) | TNF-α level (ng/g) (TNF-α) | Foam cell formation (%) ([3]; dose 10 μmol/L) | Foam cell formation (%) ([3]; dose 30 μmol/L)
1 | CCOC(=O)CCNCCC[C@](C)(O[C@H]1O[C@H](COC(C)=O)[C@@H](OC(C)=O)[C@H](OC(C)=O)[C@H]1OC(C)=O)C1CC[C@]2(C)[C@@H]1C(OC(C)=O)CC1[C@@]3(C)CC[C@H](OC(C)=O)C(C)(C)C3CC[C@]12C (stereo partly shown) [Compound 10] | 0.82 ± 0.13 | 8.52 ± 3.25 ^a % | 4.50 ± 0.94 ^a mmol/L | 6.54 ± 1.06 mmol/L | 11.66 ± 2.65 ^a ng/g | 69 ± 18 ^a % | 45 ± 21 ^a %
2 | CC(=O)OC[C@H]1O[C@H](O[C@@](C)(CCC=O)C2CC[C@]3(C)[C@@H]2C(OC(C)=O)CC2[C@@]4(C)CC[C@H](OC(C)=O)C(C)(C)C4CC[C@]23C)[C@H](OC(C)=O)[C@@H](OC(C)=O)[C@@H]1OC(C)=O (stereo partly shown) [Compound 3] | 0.42 ± 0.03 ^a | 9.74 ± 3.19 ^a % | 4.97 ± 0.95 ^a mmol/L | 6.12 ± 1.28 mmol/L | 16.68 ± 4.98 ^a ng/g | 85 ± 20% | 72 ± 13 ^a %
3 | COC(=O)[C@@H](NCCC[C@](C)(O[C@H]1O[C@H](COC(C)=O)[C@@H](OC(C)=O)[C@H](OC(C)=O)[C@H]1OC(C)=O)C1CC[C@]2(C)[C@@H]1C(OC(C)=O)CC1[C@@]3(C)CC[C@H](OC(C)=O)C(C)(C)C3CC[C@]12C)C(C)C (stereo partly shown) [Compound 5] | 0.87 ± 0.08 | 10.29 ± 2.67 ^a % | 5.21 ± 0.73 ^a mmol/L | 5.58 ± 1.89 ^a mmol/L | 17.73 ± 4.87 ^a ng/g | 77 ± 18 ^a % | 62 ± 13 ^a %
4 | CC(=O)OC[C@H]1O[C@H](O[C@@](C)(CCC2OC2(C)C)C2CC[C@]3(C)[C@@H]2C(OC(C)=O)CC2[C@@]4(C)CC[C@H](OC(C)=O)C(C)(C)C4CC[C@]23C)[C@H](OC(C)=O)[C@@H](OC(C)=O)[C@@H]1OC(C)=O (stereo partly shown) [Compound 2] | 0.51 ± 0.08 ^a | 8.27 ± 2.54 ^a % | 5.47 ± 0.91 ^a mmol/L | 5.56 ± 1.24 ^a mmol/L | 13.24 ± 3.71 ^a ng/g | 70 ± 25 ^a % | 64 ± 19%
5 | COC(=O)[C@H](CO)NCCC[C@](C)(OC(C)=O)C1CC[C@]2(C)[C@@H]1C(OC(C)=O)CC1[C@@]3(C)CC[C@H](OC(C)=O)C(C)(C)C3CC[C@]12C (stereo partly shown) [Compound 22] | 1.03 ± 0.15 | 10.32 ± 2.74 ^a % | 4.29 ± 0.84 ^a mmol/L | 6.31 ± 1.17 mmol/L | 18.14 ± 6.82 ^a ng/g | 76 ± 10 ^a % | 65 ± 14 ^a %
6 | COC(=O)[C@H](Cc1ccccc1)NCCC[C@](C)(O[C@H]1O[C@H](COC(C)=O)[C@@H](OC(C)=O)[C@H](OC(C)=O)[C@H]1OC(C)=O)C1CC[C@]2(C)[C@@H]1C(OC(C)=O)CC1[C@@]3(C)CC[C@H](OC(C)=O)C(C)(C)C3CC[C@]12C (stereo partly shown) [Compound 12] | 0.87 ± 0.16 | 10.23 ± 3.54 ^a % | 4.44 ± 0.83 ^a mmol/L | 5.27 ± 1.74 ^a mmol/L | 18.27 ± 5.24 ^a ng/g | 84 ± 15% | 68 ± 21 ^a %
7 | COC(=O)[C@H](CC1CNc2ccccc21)NCCC[C@](C)(O[C@H]1O[C@H](COC(C)=O)[C@@H](OC(C)=O)[C@H](OC(C)=O)[C@H]1OC(C)=O)C1CC[C@]2(C)[C@@H]1C(OC(C)=O)CC1[C@@]3(C)CC[C@H](OC(C)=O)C(C)(C)C3CC[C@]12C (stereo partly shown) [Compound 15] | 0.88 ± 0.04 | 10.22 ± 2.19 ^a % | 4.12 ± 0.82 ^a mmol/L | 6.54 ± 1.36 mmol/L | 16.07 ± 3.67 ^a ng/g | 68 ± 12 ^a % | 56 ± 22 ^a %
